# Test results as given in patent US20080267996A1 (priority 2005, published 2008).
# Experiments:
# [1] = tested on: HBs peptide pools (PreS2 + S ayw) and HbsAg protein; experiment: Ex vivo IFN-gamma ELISPOT of patient PBMC; format: in vivo, human; details: Part 2 Groups A, B, C
# Method: ELISPOT Assays were carried out by Cellular Technology Limited (CTL Laboratory LLC. 10515 Carnegie Ave., Suite 503 Cleveland Ohio 44106, USA) using the following assay conditions:
# The following peptides were pooled and used as antigens:
# The HBs series of peptides are arranged into 4 distinct pools of peptides, each containing up to 12 total peptides:
# The entire HbsAg protein was also used as an antigen.
# An ELISPOT response to a peptide pool (or HbsAg protein) was considered to have occurred when the mean +/− standard deviation for the peptide pool, or HbsAg protein, was greater than the mean +3 standard deviations of that patient's negative control.
# HBsAg = HBsAg / Anti-HBs serotyping (VITROS ECi); format: in vivo, hepatitis B virus; details: Week 14/18; Part 2 Group C (n 11)
# Method: Serotyping was performed using a VITROS ECi Immunodiagnostic System.
structure (smiles),measurement,setting,value
"Nc1ccn([C@@H]2CS[C@H](CO)O2)c(=O)n1 [lamivudine, Lamivudine]","baseline immunological responses (detected prior to treatment, unchanged or reduced)",[1],3
same,boosted immunological responses (of baseline responses),[1],5/8
same,de novo immunological responses (of baseline non-responders),[1],0/3
same,"HBsAg−, percent of patients",HBsAg,9%
